# Reference: EP1561465A2, “Methods of use of fluoroquinolone compounds against bacteria” (LG Life Sciences, Ltd., priority 1999, dated 2001)
# Like-named read-outs stand apart in the source and are kept apart here.
# Key:
# Assay type in all cases: cell-based
# [1] = test system: Mycobacterium tuberculosis (MTB); assay: MIC by proportions method (NCCLS M24-T, 1995), 82 MTB strains; conditions: compared with the other quinolones
# Aeromonas spp. = assay: MIC by agar dilution (NCCLS M7-A4), 288 enteropathogenic isolates, eight quinolones; conditions: Aeromonas spp. (n = 16)
# Campylobacter jejuni = assay: MIC by agar dilution (NCCLS M7-A4), 5% sheep blood, microaerophilic 48 h; conditions: Campylobacter jejuni (n=91)
# Enterococcus faecalis [2] = assay: MIC by agar dilution (NCCLS), 411 isolates Buenos Aires 1998-99; conditions: Enterococcus faecalis (n = 48)
# Streptococcus pyogenes = assay: MIC by NCCLS reference broth microdilution, 450 respiratory tract pathogens; conditions: for MIC / MIC50 / MIC90: Streptococcus pyogenes
# Moraxella catarrhalis = assay: as above
# Streptococcus pneumoniae [3] = assay: MIC by broth microdilution (NCCLS), dried MicroScan panels, clinical isolates 1998-1999; conditions: for MIC90: Streptococcus pneumoniae
# Staphylococcus aureus = assay: microbe, parasite or virus in culture
# Enterobacter aerogenes = assay: MIC by NCCLS broth microdilution, 1100 Japanese clinical isolates 1997-1998; conditions: Enterobacter aerogenes (n=35)
# Enterobacter cloacae = assay: as above; conditions: Enterobacter cloacae (n=40)
# Salmonella spp. [4] = assay: as above; conditions: Salmonella spp. (n=29)
# Morganella morganii = assay: as above; conditions: Morganella morganii (n=40)
# [5] = MIC by agar dilution, Brucella HK agar, 491 anaerobic clinical isolates
# Escherichia coli = assay: MIC by agar dilution (NCCLS), 322 nosocomial Gram negative isolates, Athens 1998; conditions: n = 57 isolates
# Streptococcus pneumoniae [6] = assay: MIC by E-test (broth microdilution for gemifloxacin), 107 pneumococcal carrier isolates, Athens 1998; conditions: E-test; for MIC Range: in µg/mL (unit assumed); for MIC50 / MIC90: Streptococcus pneumoniae; for MIC50: read-out: MIC50; for MIC90: read-out: MIC90
# Protocol: Susceptibility testing was performed by agar dilution or epsilometer method (E-test), as recommended by the NCCLS. […] The susceptibility profiles of the strains were assessed using the Epsilometer method (E-test). The isolates were subdivided into two groups according to their penicillin susceptibility patterns (penicillin-susceptible and penicillin-intermediate.
# Enterococcus faecalis [7] = assay: MIC by agar macrodilution (NCCLS), 373 Gram positive isolates, Athens 1998
# Salmonella spp. [8] = assay: MIC by agar dilution (NCCLS M7-A4), 288 enteropathogenic isolates, gemifloxacin and 15 other antimicrobials; conditions: read-out: MIC
# [9] = Streptococcus pyogenes (n = 100)
# [10] = erythromycin resistant C phenotype [MLSB] (n = 20)
# [11] = erythromycin resistant I phenotype [MLSB] (n = 20)
# [12] = erythromycin resistant M phenotype (n = 20)
# [13] = Streptococcus pneumoniae (302 isolates)
# [14] = Penicillin-intermediate S. pneumoniae (n = 24)
# [15] = Penicillin-susceptible S. pneumoniae (n = 107)
smiles,measurement,setting,value
"CO/N=C1\CN(c2nc3c(cc2F)c(=O)c(C(=O)O)cn3C2CC2)CC1CN (racemic) [Gemifloxacin, (R,S)-7-(3-aminomethyl-4-methoxyiminopyrrolidin-1-yl)-1-cyclopropyl-6-fluoro-4-oxo-1,4-dihydro-1,8-naphthyridine-3-carboxylic acid]",in vitro activity against MTB,[1],lower in vitro activity
same,% Susceptible,Aeromonas spp.,100%
same,MIC50,Aeromonas spp.,≤ 0.015 µg/mL
same,MIC90,Aeromonas spp.,0.03 µg/mL
same,MIC Range,Aeromonas spp.,≤0.015 to 0.12 µg/mL
same,% Susceptible,Campylobacter jejuni,31.86%
same,MIC50,Campylobacter jejuni,32 µg/mL
same,MIC90,Campylobacter jejuni,128 µg/mL
same,MIC Range,Campylobacter jejuni,0.03 to 128 µg/mL
same,MIC90,Enterococcus faecalis [2],2 µg/mL
same,MIC Range,Enterococcus faecalis [2],0.008 to 8 µg/mL
same,activity higher than that of the other fluoroquinolones tested,Streptococcus pyogenes; S. pyogenes,2-32 fold
same,MIC,Streptococcus pyogenes; [9],0.00375 to 0.06 µg/mL
same,MIC50,Streptococcus pyogenes; [9],0.015 µg/mL
same,MIC90,Streptococcus pyogenes; [9],0.03 µg/mL
same,MIC,Streptococcus pyogenes; [10],0.00375 to 0.03 µg/mL
same,MIC50,Streptococcus pyogenes; [10],0.015 µg/mL
same,MIC90,Streptococcus pyogenes; [10],0.015 µg/mL
same,MIC,Streptococcus pyogenes; [11],0.00375 to 0.06 µg/mL
same,MIC50,Streptococcus pyogenes; [11],0.015 µg/mL
same,MIC90,Streptococcus pyogenes; [11],0.03 µg/mL
same,MIC,Streptococcus pyogenes; [12],0.00375 to 0.03 µg/mL
same,MIC50,Streptococcus pyogenes; [12],0.015 µg/mL
same,MIC90,Streptococcus pyogenes; [12],0.015 µg/mL
same,MIC,Streptococcus pyogenes; fully susceptible (n = 20),0.0075 to 0.03 µg/mL
same,MIC50,Streptococcus pyogenes; fully susceptible (n = 20),0.015 µg/mL
same,MIC90,Streptococcus pyogenes; fully susceptible (n = 20),0.03 µg/mL
same,MIC,Streptococcus pyogenes; multi-drug resistant (n = 20),0.0075 to 0.015 µg/mL
same,MIC50,Streptococcus pyogenes; multi-drug resistant (n = 20),0.015 µg/mL
same,MIC90,Streptococcus pyogenes; multi-drug resistant (n = 20),0.03 µg/mL
same,MIC,Moraxella catarrhalis; Moraxella catarrhalis (n = 50),0.00375 to 0.03 µg/mL
same,MIC50,Moraxella catarrhalis; Moraxella catarrhalis (n = 50),0.015 µg/mL
same,MIC90,Moraxella catarrhalis; Moraxella catarrhalis (n = 50),0.015 µg/mL
same,MIC,Moraxella catarrhalis; β-lactamase negative (n = 13),0.00375 to 0.015 µg/mL
same,MIC50,Moraxella catarrhalis; β-lactamase negative (n = 13),0.015 µg/mL
same,MIC90,Moraxella catarrhalis; β-lactamase negative (n = 13),0.015 µg/mL
same,MIC,Moraxella catarrhalis; β-lactamase positive (n = 37),0.00375 to 0.03 µg/mL
same,MIC50,Moraxella catarrhalis; β-lactamase positive (n = 37),0.015 µg/mL
same,MIC90,Moraxella catarrhalis; β-lactamase positive (n = 37),0.015 µg/mL
same,more active than grepafloxacin,Streptococcus pneumoniae [3]; S. pneumoniae,two-fold
same,more active than levofloxacin,Streptococcus pneumoniae [3]; S. pneumoniae,16 fold
same,more active than trovafloxacin,Streptococcus pneumoniae [3]; S. pneumoniae,four-fold
same,MIC50,Streptococcus pneumoniae [3]; [13],0.03 µg/mL
same,MIC Range,Streptococcus pneumoniae [3]; [13],≤0.0015 to 0.12 µg/mL
same,MIC90,Streptococcus pneumoniae [3]; Erythromycin-resistant (86),0.03 µg/mL
same,MIC90,Streptococcus pneumoniae [3]; Erythromycin-sensitive (216),0.06 µg/mL
same,MIC90,Streptococcus pneumoniae [3]; Penicillin-intermediate (124),0.03 µg/mL
same,MIC90,Streptococcus pneumoniae [3]; Penicillin-resistant (80),0.06 µg/mL
same,MIC90,Streptococcus pneumoniae [3]; Penicillin-sensitive (98),0.06 µg/mL
same,MIC90,Streptococcus pneumoniae [3]; [13],0.06 µg/mL
same,MIC Range,Staphylococcus aureus; Methicillin-resistant (38),0.031 to 32 µg/mL
same,MIC Range,Staphylococcus aureus; Methicillin-susceptible (9),0.031 to 0.25 µg/mL
same,increase of MIC,"Staphylococcus aureus; S. aureus KU2240 with a single mutation in NorA, DNA gyrase or topoisomerase IV",2-4 fold
same,MIC90,"Staphylococcus aureus; Staphylococcus aureus, Methicillin-susceptible (9), read-out: MIC90",0.25 µg/mL
same,MIC,"Staphylococcus aureus; Staphylococcus aureus, S. aureus KU2240, mutant type Wild (wild strain)",0.031 µg/mL
same,MIC,"Staphylococcus aureus; Staphylococcus aureus, S. aureus KU2240, read-out: MIC",0.031 µg/mL
same,MIC,"Staphylococcus aureus; Staphylococcus aureus, S. aureus KU2241, mutant type NorA (efflux-mediated quinolone resistant)",0.063 µg/mL
same,MIC,"Staphylococcus aureus; Staphylococcus aureus, S. aureus KU2242, mutant type T (DNA topoisomerase IV)",0.063 µg/mL
same,MIC,"Staphylococcus aureus; Staphylococcus aureus, S. aureus KU2244, mutant type G (DNA gyrase)",0.125 µg/mL
same,MIC,"Staphylococcus aureus; Staphylococcus aureus, S. aureus KU2246, mutant type T (DNA topoisomerase IV)",0.125 µg/mL
same,MIC Range,Enterobacter aerogenes,0.016 to 0.25 µg/mL
same,MIC50,Enterobacter aerogenes; Klebsiella aerogenes,0.032 µg/mL
same,MIC90,Enterobacter aerogenes; Klebsiella aerogenes,0.063 µg/mL
same,MIC50,Enterobacter cloacae,0.032 µg/mL
same,MIC90,Enterobacter cloacae,1 µg/mL
same,MIC Range,Enterobacter cloacae,≤0.008 to 2 µg/mL
same,MIC50,Salmonella spp. [4],0.032 µg/mL
same,MIC90,Salmonella spp. [4],0.032 µg/mL
same,MIC Range,Morganella morganii,0.016 to 16 µg/mL
same,MIC50,Morganella morganii; read-out: MIC50,0.063 µg/mL
same,MIC90,Morganella morganii; read-out: MIC90,0.25 µg/mL
same,MIC90,"[5]; clinical isolates of Bacteroides spp., Prevotella bivia and other Prevotella spp.",8 to 32 µg/mL
same,MIC,[5]; read-out: MIC90s,0.125 to 0.5 µg/mL
same,MIC50,Escherichia coli; Escherichia coli,≤ 0.03 µg/mL
same,MIC90,Escherichia coli; Escherichia coli,0.25 µg/mL
same,MIC Range,Escherichia coli,≤0.03 to 64 µg/mL
same,MIC Range,Streptococcus pneumoniae [6]; [14],0.004-0.125
same,MIC Range,Streptococcus pneumoniae [6]; [15],0.002-0.19
same,MIC50,Streptococcus pneumoniae [6]; [14],0.064 µg/mL
same,MIC90,Streptococcus pneumoniae [6]; [14],0.23 µg/mL
same,MIC50,Streptococcus pneumoniae [6]; [15],0.032 µg/mL
same,MIC90,Streptococcus pneumoniae [6]; [15],0.064 µg/mL
same,MIC distribution (µg/ml) 0.03,Enterococcus faecalis [7],2
same,MIC distribution (µg/ml) 0.06,Enterococcus faecalis [7],2
same,MIC distribution (µg/ml) 0.125,Enterococcus faecalis [7],24
same,MIC distribution (µg/ml) 0.25,Enterococcus faecalis [7],22
same,MIC distribution (µg/ml) 1,Enterococcus faecalis [7],2
same,MIC distribution (µg/ml) 2,Enterococcus faecalis [7],1
same,MIC distribution (µg/ml) 4,Enterococcus faecalis [7],5
same,MIC distribution (µg/ml) 8,Enterococcus faecalis [7],9
same,MIC distribution (µg/ml) 16,Enterococcus faecalis [7],5
same,MIC distribution (µg/ml) ≤0.015,Enterococcus faecalis [7],0
same,MIC distribution (µg/ml) ≥32,Enterococcus faecalis [7],4
same,MIC50,"Enterococcus faecalis [7]; Enterococcus faecalis, n = 81 isolates, read-out: MIC50",0.25 µg/mL
same,MIC90,"Enterococcus faecalis [7]; Enterococcus faecalis, n = 81 isolates, read-out: MIC90",16 µg/mL
same,MIC distribution (µg/ml) 0.5,"Enterococcus faecalis [7]; number of isolates at MIC 0.5 µg/ml, n = 81",5
same,MIC,"Salmonella spp. [8]; S. hadar(2), isolates with MICs for ciprofloxacin ≥[…]",0.25 µg/mL
same,MIC,"Salmonella spp. [8]; S. newport(1), isolate with MIC for ciprofloxacin ≥[…]",0.25 µg/mL
same,MIC,"Salmonella spp. [8]; S. virchow(2), isolates with MICs for ciprofloxacin ≥[…]",0.12 µg/mL
same,MIC,"Salmonella spp. [8]; Salmonella, S. tshiongwe(1), isolate with MIC for ciprofloxacin ≥[…]",0.25 µg/mL
